Experimental data from article PMC10590756, “Glutarate regulates T cell metabolism and anti-tumour immunity” (Nature Metabolism, 2023).

Key:
human CD8^+ T cells [1] = test: Memory populations (CCR7/CD45RO) of human CD8^+ T cells by flow cytometry; type: cell-based
Protocol: This contrasts with octyl ester S-2HG, which decreases cell growth from 400 µM (Extended Data Fig. 1c).
Human PBMCs were obtained from NHSBT: Addenbrooke’s Hospital, Cambridge, UK or the Karolinska Hospital Service, Sweden. Ethical approval was obtained from the East of England-Cambridge Central Research Ethics Committee (06/Q0108/281) and consent was obtained from all participants. PBMCs from healthy donors were isolated from blood using discontinuous plasma Percoll gradients. Naive CD8^+ T cells were isolated using the Naive CD8^+ T Cell Isolation Kit (catalogue no. 130-093-244, Miltenyi Biotec), in accordance with the manufacturer’s instructions. Total CD8^+ T cells were purified by either positive or negative magnetic bead sorting (catalogue nos. 130-045-201 and 130-096-495, Miltenyi Biotec). All human CD8^+ T cells were activated with anti-human CD3/CD28 Dynabeads (catalogue no. 11131D, Thermo Fisher Scientific) at a 1:1 cell:bead ratio and cultured in complete RPMI 1640 supplemented with 10% FCS, 100 U ml^−1 penicillin, 100 µg ml^−1 streptomycin and 30 U ml^−1 interleukin-2 (IL-2) (catalogue no. 11147528001, Sigma-Aldrich).
(§1) Single-cell suspensions were stained with LIVE/DEAD Fixable Near-IR Dead Cell Stain Kit (catalogue no. 10119, Thermo Fisher Scientific) followed by surface and intracellular staining with fluorochrome-labelled antibodies (Supplementary Tables 1 and 2). Staining of cytoplasmic and nuclear antigens was performed using the Cytofix/Cytoperm Fixation/Permeabilization Kit (catalogue no. 554714, BD Biosciences) and the Transcription Factor Buffer Set (catalogue no. 562725, BD Biosciences), respectively. For the proliferation assays, cells were loaded with CellTrace Violet (catalogue no. C34557, Thermo Fisher Scientific) according to the manufacturer’s instructions. Samples were acquired on an Aurora (Cytek Biosciences).

human TET2 enzyme = target: T1, human TET2 enzyme (Homo sapiens, UniProt Q6N021); test: Cell-free TET2 enzymatic activity assay; type: biochemical
T1 construct: purchased BPS Bioscience 50162
Protocol: A total of 2 nM of the human TET2 enzyme (catalogue no. 50162, BPS Bioscience) or 4 nM of the human KDM4C enzyme (catalogue no. 50105, BPS Bioscience) was incubated with the substrate of 30 nM single-stranded DNA (ssBiotin 26 nt Me-C Oligo, Genscript), in the presence of αKG (catalogue no. K3752, Sigma-Aldrich), 10 µM ammonium iron(II) sulphate hexahydrate (catalogue no. F3754, Sigma-Aldrich) in assay buffer (50 mM HEPES (catalogue no. 15630-080, Gibco), pH 7.0, 100 mM NaCl, 0.01% Pluronic F-127, 1 mM TCEP (S16054, Shanghai Yuanye Bio-Technology Company), 2 mM ascorbic acid (A5960, Sigma-Aldrich), 0.2 mg/ml BSA (catalogue no. B2064, Sigma-Aldrich) and 1,000 U ml^−1 catalase (catalogue no. C40, Sigma-Aldrich)). The concentration of αKG used for the TET2 standard and competitive assays was 115 µM and 4,500 µM, respectively. The concentration of αKG used for the KDM4C standard and competitive assays was 10 µM and 50 µM, respectively. The concentration of αKG used in the standard assay was calculated for each enzyme batch and is the concentration of substrate at which half the maximum reaction rate is achieved. DEG and glutaric acid were used in threefold serial dilution and the maximum concentration used was 5 mM. The pre-incubation time of the inhibitors with the TET2 mixture was 30 min at room temperature. The reaction step was at room temperature for 90 min. The product was detected by using a 5 nM anti-5hmC antibody (catalogue no. 39999, Active Motif), 5 nM Eu-Protein A (catalogue no. 61PRAKLB, Cisbio), 6.25 nM streptavidin-Alexa Fluor 647 (catalogue no. S21374, Thermo Fisher Scientific) and 10 mM EDTA (catalogue no. 0369, Sigma-Aldrich). For the standard curve, the ssBiotin 26 nt HydMe-C Oligo was used. The assays were performed in technical duplicates in a 384-well plate. Inhibitor analysis was performed within the linear range of catalysis.
The percentage of inhibition was calculated with the following formula: inhibition% = (1−(signal value per well−average low control)/(average high control−average low control)) × 100. Data were fitted using Prism (GraphPad Software) with a four-parameter equation via ‘log(inhibitor) versus response−variable slope’ model.

human KDM4C enzyme = target: T2, human KDM4C enzyme (Homo sapiens, UniProt Q9H3R0); test: Cell-free KDM4C enzymatic activity assay; type: biochemical
T2 construct: purchased BPS Bioscience 50105
Protocol: A total of 2 nM of the human TET2 enzyme (catalogue no. 50162, BPS Bioscience) or 4 nM of the human KDM4C enzyme (catalogue no. 50105, BPS Bioscience) was incubated with the substrate of 30 nM single-stranded DNA (ssBiotin 26 nt Me-C Oligo, Genscript), in the presence of αKG (catalogue no. K3752, Sigma-Aldrich), 10 µM ammonium iron(II) sulphate hexahydrate (catalogue no. F3754, Sigma-Aldrich) in assay buffer (50 mM HEPES (catalogue no. 15630-080, Gibco), pH 7.0, 100 mM NaCl, 0.01% Pluronic F-127, 1 mM TCEP (S16054, Shanghai Yuanye Bio-Technology Company), 2 mM ascorbic acid (A5960, Sigma-Aldrich), 0.2 mg/ml BSA (catalogue no. B2064, Sigma-Aldrich) and 1,000 U ml^−1 catalase (catalogue no. C40, Sigma-Aldrich)). […] The concentration of αKG used in the standard assay was calculated for each enzyme batch and is the concentration of substrate at which half the maximum reaction rate is achieved. […] The product was detected by using a 5 nM anti-5hmC antibody (catalogue no. 39999, Active Motif), 5 nM Eu-Protein A (catalogue no. 61PRAKLB, Cisbio), 6.25 nM streptavidin-Alexa Fluor 647 (catalogue no. S21374, Thermo Fisher Scientific) and 10 mM EDTA (catalogue no. 0369, Sigma-Aldrich). […]
The percentage of inhibition was calculated with the following formula: inhibition% = (1−(signal value per well−average low control)/(average high control−average low control)) × 100. […]

[2] = tested on: HIF-P4H activity against pFLAG-Gal4-mHIF-1α NTAD; test: HIF-PH activity luciferase reporter assay in MEFs; type: cell-based, mouse
Text: To test HIF-P4H inhibition via DEG treatment in a cellular system, we used a luciferase reporter assay driven by a Gal4 response element (GRE-luc), pFLAG-Gal4-mHIF-1α N-terminal transcription activation domain (NTAD)[35]. The NTAD contains proline residues that are hydroxylated by HIF-P4H enzymes to target the protein for degradation; thus, luciferase expression in this assay is controlled by HIF-P4H hydroxylation activity against the pFLAG-Gal4-mHIF-1α NTAD.
MEFs were transiently transfected using Lipofectamine 2000 (Thermo Fisher Scientific) with 20 ng per expression plasmid for 2 × 10^4 cells per well in a 96-well plate. Cells were treated with transfection mixes for 8 h.
Generation of plasmids for the HIF-PH activity luciferase reporter assay has been described previously: luciferase reporter driven by GRE-luc pFLAG-Gal4-mHIF-1α NTAD[35]. […] After 8 h of transient transfection with expression plasmids, cells were treated with experimental medium containing metabolites and drugs as described in the figure legends for 16 h; then, the luciferase signal assessed using the Steady-Glo Luciferase Assay System (Promega Corporation) detected using a luminometer. […]

human CD8^+ T cells [3] = test: Markers of T cell differentiation and exhaustion by flow cytometry; type: cell-based
Protocol: as §1

human CD19^+ CAR T cells = test: Growth of human CD19 CAR T cells; type: cell-based; conditions: 500 µM, 7 days
[4] = set-up: method as in PMID 29989593; conditions: approved by the European Union for use as a food additive; cited from earlier work
[5] = 10 days of DEG treatment, 500 µM

T2 sequence (Q9H3R0 2-372 limits assumed): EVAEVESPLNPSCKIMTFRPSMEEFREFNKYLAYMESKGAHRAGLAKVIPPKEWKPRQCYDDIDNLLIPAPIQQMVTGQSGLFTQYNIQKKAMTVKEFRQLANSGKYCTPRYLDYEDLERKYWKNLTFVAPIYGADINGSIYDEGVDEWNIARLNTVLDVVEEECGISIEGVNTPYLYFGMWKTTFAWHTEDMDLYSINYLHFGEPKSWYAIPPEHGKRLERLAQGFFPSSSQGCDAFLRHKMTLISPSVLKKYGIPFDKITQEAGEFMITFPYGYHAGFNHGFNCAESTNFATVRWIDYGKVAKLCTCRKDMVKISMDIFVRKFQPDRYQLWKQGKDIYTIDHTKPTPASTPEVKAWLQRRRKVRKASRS

Structure (SMILES)	TCM population (CCR7^hiCD45RO^hi) (human CD8^+ T cells [1]; 7 days of culture with DEG)	effector memory T (TEM) cell population (CCR7^loCD45RO^hi) (human CD8^+ T cells [1]; 7 days of culture with DEG)	TET2 inhibition (human TET2 enzyme; cell-free, increasing concentrations, maximum 5 mM)	KDM4C inhibition (human KDM4C enzyme; cell-free, DEG alone)	cellular HIF-P4H activity ([2]; MEFs, 16 h, increasing concentrations of DEG)	expression of LAG3 (human CD8^+ T cells [3]; [5])	expression of TIM3 (human CD8^+ T cells [3]; [5])	expression of TOX (human CD8^+ T cells [3]; [5])	expression of granzyme B (GZMB) (human CD8^+ T cells [3]; DEG 500 µM, 7-10 days)	growth of human CD19^+ CAR T cells (human CD19^+ CAR T cells)	toxicity [4]	TCM populations (human CD8^+ T cells [1]; glutarate alone (not esterified), higher doses, 10 days of culture)	IC50 (human TET2 enzyme; IC50 TET2 + 40× αKG, αKG 4,500 µM (competitive assay)) [µM]	IC50 (human TET2 enzyme; IC50 recombinant TET2, cell-free) [µM]	mode of TET2 inhibition (human TET2 enzyme; reduced inhibition with increased levels of αKG)	IC50 (human KDM4C enzyme) [µM]	mode of HIF-P4H-1 inhibition ([2]; MEFs treated 16 h with DEG and dimethyl αKG)
CCOC(=O)CCCC(=O)OCC [DEG, Diethyl glutarate]	increased the TCM population	decreased	did not inhibit	not capable of inhibiting	can inhibit	downregulated	downregulated	downregulated	increases	did not affect the growth	non-toxic						
O=C(O)CCCC(=O)O [glutarate, glutaric acid]												capable of increasing TCM populations	~5000	1500	competitive with αKG	1000	αKG-competitive
